Literature values in patent publication US20110146671A1, “PHARMACEUTICAL COMPOSITIONS AND METHODS OF DELIVERING THE SAME” (priority 2006, published 2011).
Structures can show the parent of a compound that is named as a salt.

Tested on: patients with perennial allergic rhinitis
Settings: 1% solution in normal saline, nasal wash every 48 hours for 4 weeks, versus placebo wash (normal saline only)

Question: For CN[C@@H](C)[C@H](O)c1ccccc1 [ephedrine hydrochloride], which “peak nasal inspiratory flow rates” value is on record?
Answer: Its value is “significant improvement”.

Question: What about the symptom scores of the same compound?
Answer: Its symptom scores is “significant improvement”.
